Test results as given in patent publication US11000033B2, “Ketone or oxime compound, and herbicide” (NISSAN CHEMICAL CORPORATION, priority 2014, dated 2021).

Columns and labels:
Type in all cases: in vivo
Alopecurus myosuroides [1] = test: Test Example 5: herbicidal effect by foliage application, plastic box (symbol J); conditions: 3 weeks after application
Method in brief: (§1)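 Leaf-applied emulsion, water-diluted to a preset herbicide dose, on two-week-old seedlings raised in a 25° C. to 30° C. greenhouse; injury rated at 3 weeks using earlier criteria.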

Leptochloa chinensis = test: Test Example 3: herbicidal effect by foliage application, Wagner pot (symbol D)
Method in brief: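 Seeds sown in alluvial soil kept under 0.1–0.5 cm water, greenhouse 25–30 °C; 14 d growth. Leaves treated by small sprayer with water-diluted emulsion at a predetermined rate. Effect graded by set scale, 3 weeks.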

transplanted rice plant = test: Test Example 1: effect on crop, application before weed generation in submerged conditions (symbol a)
Method in brief: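 Rice at 2.5 leaf stage transplanted into submerged soil (4 cm depth) sown with three weed species; herbicide applied before weed emergence.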

Galium spurium = test: Test Example 5: herbicidal effect by foliage application, plastic box (symbol Q); conditions: 3 weeks after application
Method in brief: as §1

Lolium multiflorum Lam. = test: Test Example 5: herbicidal effect by foliage application, plastic box (symbol K); conditions: 3 weeks after application
Method in brief: as §1

Avena fatua = test: Test Example 4: herbicidal effect by soil treatment (symbol I); conditions: for I (Avena fatua) herbicidal effect grade: application herbicide amount 320 g/ha
From the text: (§2) Herbicidal Effect Test by Soil Treatment
(§3) Sterilized diluvial soil was placed in a plastic box having a length of 21 cm, a width of 13 cm, and a depth of 7 cm. Each of the seeds of Digitaria ciliaris, Setaria viridis, Echinochloa crus-galli var. crus-galli, Avena fatua, Alopecurus myosuroides, Lolium multiflorum Lam., Apera spica-venti, Abutilon theophrasti, Amaranthus retroflexus, Chenopodium album, Stellaria media, Galium spurium, Veronica persica, corn, soybean, rice, wheat, beet, and rapeseed was sowed in a spot-like manner and was covered with the soil of a thickness of about 1.5 cm. Subsequently, the emulsion agent of the compound present invention prepared in accordance with Formulation Example 2 was diluted with water so as to be a predetermined herbicide amount and the diluted emulsion agent was uniformly applied to the surface of the soil with a small-size spray. The plastic box was placed in a greenhouse of 25° C. to 30° C. to grow plant. 3 weeks later from the herbicide application, the effect to each plant was investigated in accordance with the criteria of Test Example 1.

soybean = test: Test Example 5: effect on crop by foliage application, plastic box (symbol d); conditions: 3 weeks after application
Method in brief: (§4)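 A greenhouse held between 25° C. and 30° C. was used to grow plants sown spot-wise, beneath ~1.5 cm of soil, in boxes of sterilized diluvial soil.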

Scirpus juncoides = test: Test Example 2: herbicidal activity, application during weed generation in submerged conditions (symbol B); conditions: Table 23, grade 0-5 by criteria of Test Example 1
Method in brief: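 Each pot contained alluvial soil under 4 cm of water with seeds of all three weeds sown together. Following growth at 25° C. to 30° C. to the one- to two-leaf stage, the floodwater received diluted emulsion at a predetermined amount; visual assessment followed at 3 weeks.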

wheat [2] = test: Test Example 4: effect on crop by soil treatment (symbol e); conditions: for e (wheat) effect on crop grade: application herbicide amount 320 g/ha
From the text: as §2
Sterilized diluvial soil was placed in a plastic box having a length of 21 cm, a width of 13 cm, and a depth of 7 cm. Each of the seeds of Digitaria ciliaris, Setaria viridis, Echinochloa crus-galli var. crus-galli, Avena fatua, Alopecurus myosuroides, Lolium multiflorum Lam., Apera spica-venti, Abutilon theophrasti, Amaranthus retroflexus, Chenopodium album, Stellaria media, Galium spurium, Veronica persica, corn, soybean, rice, wheat, beet, and rapeseed was sowed in a spot-like manner and was covered with the soil of a thickness of about 1.5 cm. […] The plastic box was placed in a greenhouse of 25° C. to 30° C. to grow plant.

Digitaria ciliaris = test: Test Example 5: herbicidal effect by foliage application, plastic box (symbol F); conditions: 3 weeks after application
Method in brief: as §1

corn = test: Test Example 5: effect on crop by foliage application, plastic box (symbol c); conditions: 3 weeks after application
Method in brief: as §4

Alopecurus myosuroides [3] = test: Test Example 4: herbicidal effect by soil treatment (symbol J); conditions: for J (Alopecurus myosuroides) herbicidal effect grade: application herbicide amount 320 g/ha
From the text: as §2, §3

wheat [4] = test: Test Example 5: effect on crop by foliage application, plastic box (symbol e); conditions: 3 weeks after application
Method in brief: as §4

[5] = application herbicide amount 320 g/ha
[6] = application herbicide amount 269 g/ha

## CON=C(C)CC1CC(OC(=O)C(C)(C)C)=C(c2c(C)cc(C)cc2C)C1=O (centres unmarked) [1-004, 2-mesityl-4-{2-(methoxyimino)propyl}-3-oxocyclopent-1-en-1-yl pivalate]
Alopecurus myosuroides [1]; 320 g/ha
  J: Alopecurus myosuroides, herbicidal effect grade: 5 (Herbicidal ratio of 90% or more (almost completely withered))
Leptochloa chinensis; [5]
  herbicidal effect on D (Leptochloa chinensis), grade 0-5: 5 (Herbicidal ratio of 90% or more (almost completely withered))
Transplanted rice plant; [5]
  Effect grade on crop, a: transplanted rice plant: 5 (Herbicidal ratio of 90% or more (almost completely withered))
Galium spurium; 320 g/ha
  Q: Galium spurium, herbicidal effect grade: 3 (Herbicidal ratio of 40% or higher and lower than 70%)
Lolium multiflorum Lam.; 320 g/ha
  K: Lolium multiflorum Lam., herbicidal effect grade: 5 (Herbicidal ratio of 90% or more (almost completely withered))
Avena fatua
  I (Avena fatua) herbicidal effect grade: 5 (Herbicidal ratio of 90% or more (almost completely withered))
soybean; 320 g/ha
  d: soybean, effect on crop grade: 4 (Herbicidal ratio of 70% or higher and lower than 90%)
Scirpus juncoides; [5]
  Herbicidal effect grade, B: Scirpus juncoides: 4 (Herbicidal ratio of 70% or higher and lower than 90%)
Wheat [2]
  e (wheat) effect on crop grade: 3 (Herbicidal ratio of 40% or higher and lower than 70%)
Digitaria ciliaris; 320 g/ha
  F: Digitaria ciliaris, herbicidal effect grade: 5 (Herbicidal ratio of 90% or more (almost completely withered))
corn; 320 g/ha
  c: corn, effect on crop grade: 5 (Herbicidal ratio of 90% or more (almost completely withered))
Alopecurus myosuroides [3]
  J (Alopecurus myosuroides) herbicidal effect grade: 5 (Herbicidal ratio of 90% or more (almost completely withered))
Wheat [4]; 320 g/ha
  e: wheat, effect on crop grade: 5 (Herbicidal ratio of 90% or more (almost completely withered))

## CON=C(C)CC1CC(OC(C)=O)=C(c2c(C)cc(C)cc2C)C1=O (centres unmarked) [1-005]
Alopecurus myosuroides [1]; 320 g/ha
  J: Alopecurus myosuroides, herbicidal effect grade: 5 (Herbicidal ratio of 90% or more (almost completely withered))
Leptochloa chinensis; [5]
  herbicidal effect on D (Leptochloa chinensis), grade 0-5: 5 (Herbicidal ratio of 90% or more (almost completely withered))
Transplanted rice plant; [5]
  Effect grade on crop, a: transplanted rice plant: 5 (Herbicidal ratio of 90% or more (almost completely withered))
Galium spurium; 320 g/ha
  Q: Galium spurium, herbicidal effect grade: 4 (Herbicidal ratio of 70% or higher and lower than 90%)
Lolium multiflorum Lam.; 320 g/ha
  K: Lolium multiflorum Lam., herbicidal effect grade: 5 (Herbicidal ratio of 90% or more (almost completely withered))
Avena fatua
  I (Avena fatua) herbicidal effect grade: 5 (Herbicidal ratio of 90% or more (almost completely withered))
soybean; 320 g/ha
  d: soybean, effect on crop grade: 4 (Herbicidal ratio of 70% or higher and lower than 90%)
Scirpus juncoides; [5]
  Herbicidal effect grade, B: Scirpus juncoides: 4 (Herbicidal ratio of 70% or higher and lower than 90%)
Wheat [2]
  e (wheat) effect on crop grade: 4 (Herbicidal ratio of 70% or higher and lower than 90%)
Digitaria ciliaris; 320 g/ha
  F: Digitaria ciliaris, herbicidal effect grade: 5 (Herbicidal ratio of 90% or more (almost completely withered))
corn; 320 g/ha
  c: corn, effect on crop grade: 5 (Herbicidal ratio of 90% or more (almost completely withered))
Alopecurus myosuroides [3]
  J (Alopecurus myosuroides) herbicidal effect grade: 5 (Herbicidal ratio of 90% or more (almost completely withered))
Wheat [4]; 320 g/ha
  e: wheat, effect on crop grade: 5 (Herbicidal ratio of 90% or more (almost completely withered))

## C=CCOC1=C(c2c(C)cc(C)cc2C)C(=O)C(CC(C)=NOC)C1 (centres unmarked) [1-007]
Alopecurus myosuroides [1]; 320 g/ha
  J: Alopecurus myosuroides, herbicidal effect grade: 3 (Herbicidal ratio of 40% or higher and lower than 70%)
Leptochloa chinensis; [5]
  herbicidal effect on D (Leptochloa chinensis), grade 0-5: 5 (Herbicidal ratio of 90% or more (almost completely withered))
Transplanted rice plant; [5]
  Effect grade on crop, a: transplanted rice plant: 0 (Herbicidal ratio of 5% or lower (almost no effect))
Galium spurium; 320 g/ha
  Q: Galium spurium, herbicidal effect grade: 0 (Herbicidal ratio of 5% or lower (almost no effect))
Lolium multiflorum Lam.; 320 g/ha
  K: Lolium multiflorum Lam., herbicidal effect grade: 5 (Herbicidal ratio of 90% or more (almost completely withered))
Avena fatua
  I (Avena fatua) herbicidal effect grade: 0 (Herbicidal ratio of 5% or lower (almost no effect))
soybean; 320 g/ha
  d: soybean, effect on crop grade: 0 (Herbicidal ratio of 5% or lower (almost no effect))
Scirpus juncoides; [5]
  Herbicidal effect grade, B: Scirpus juncoides: 0 (Herbicidal ratio of 5% or lower (almost no effect))
Wheat [2]
  e (wheat) effect on crop grade: 0 (Herbicidal ratio of 5% or lower (almost no effect))
Digitaria ciliaris; 320 g/ha
  F: Digitaria ciliaris, herbicidal effect grade: 0 (Herbicidal ratio of 5% or lower (almost no effect))
corn; 320 g/ha
  c: corn, effect on crop grade: 0 (Herbicidal ratio of 5% or lower (almost no effect))
Alopecurus myosuroides [3]
  J (Alopecurus myosuroides) herbicidal effect grade: 0 (Herbicidal ratio of 5% or lower (almost no effect))
Wheat [4]; 320 g/ha
  e: wheat, effect on crop grade: 0 (Herbicidal ratio of 5% or lower (almost no effect))

## CON=C(C)CC1CC(OC(=O)CN(C)C(=O)c2ccccc2)=C(c2c(C)cc(C)cc2C)C1=O (centres unmarked) [1-139]
Alopecurus myosuroides [1]; 320 g/ha
  J: Alopecurus myosuroides, herbicidal effect (criteria 0-5): 5 (Herbicidal ratio of 90% or more (almost completely withered))
Leptochloa chinensis; [5]
  herbicidal effect on D (Leptochloa chinensis), grade 0-5: 5 (Herbicidal ratio of 90% or more (almost completely withered))
Transplanted rice plant; [5]
  Effect grade on crop, a: transplanted rice plant: 5 (Herbicidal ratio of 90% or more (almost completely withered))
Galium spurium; 320 g/ha
  Q: Galium spurium, herbicidal effect (criteria 0-5): 3 (Herbicidal ratio of 40% or higher and lower than 70%)
Lolium multiflorum Lam.; 320 g/ha
  K: Lolium multiflorum Lam., herbicidal effect (criteria 0-5): 5 (Herbicidal ratio of 90% or more (almost completely withered))
Avena fatua; 320 g/ha
  I: Avena fatua, herbicidal effect grade: 4 (Herbicidal ratio of 70% or higher and lower than 90%)
soybean; 320 g/ha
  d: soybean, effect on crop (criteria 0-5): 1 (Herbicidal ratio of 5% or higher and lower than 20%)
Scirpus juncoides; [5]
  Herbicidal effect grade, B: Scirpus juncoides: 4 (Herbicidal ratio of 70% or higher and lower than 90%)
Wheat [2]; 320 g/ha
  e: wheat, effect grade on crop: 3 (Herbicidal ratio of 40% or higher and lower than 70%)
Digitaria ciliaris; 320 g/ha
  F: Digitaria ciliaris, herbicidal effect (criteria 0-5): 5 (Herbicidal ratio of 90% or more (almost completely withered))
corn; 320 g/ha
  c: corn, effect on crop (criteria 0-5): 5 (Herbicidal ratio of 90% or more (almost completely withered))
Alopecurus myosuroides [3]; 320 g/ha
  J: Alopecurus myosuroides, herbicidal effect grade: 5 (Herbicidal ratio of 90% or more (almost completely withered))
Wheat [4]; 320 g/ha
  e: wheat, effect on crop (criteria 0-5): 5 (Herbicidal ratio of 90% or more (almost completely withered))

## CC(=O)C(C)C1CC(O)=C(c2c(C)cc(C)cc2C)C1=O (centres unmarked) [2-005]
Alopecurus myosuroides [1]; 269 g/ha
  J: Alopecurus myosuroides, herbicidal effect grade: 5 (Herbicidal ratio of 90% or more (almost completely withered))
Leptochloa chinensis; [6]
  herbicidal effect on D (Leptochloa chinensis), grade 0-5: 5 (Herbicidal ratio of 90% or more (almost completely withered))
Transplanted rice plant; [6]
  Effect grade on crop, a: transplanted rice plant: 4 (Herbicidal ratio of 70% or higher and lower than 90%)
Galium spurium; 269 g/ha
  Q: Galium spurium, herbicidal effect grade: 0 (Herbicidal ratio of 5% or lower (almost no effect))
Lolium multiflorum Lam.; 269 g/ha
  K: Lolium multiflorum Lam., herbicidal effect grade: 5 (Herbicidal ratio of 90% or more (almost completely withered))
Avena fatua; [6]
  I: Avena fatua, herbicidal effect grade: 0 (Herbicidal ratio of 5% or lower (almost no effect))
soybean; 269 g/ha
  d: soybean, effect on crop grade: 0 (Herbicidal ratio of 5% or lower (almost no effect))
Scirpus juncoides; [6]
  Herbicidal effect grade, B: Scirpus juncoides: 0 (Herbicidal ratio of 5% or lower (almost no effect))
Wheat [2]; [6]
  e: wheat, effect on crop grade: 0 (Herbicidal ratio of 5% or lower (almost no effect))
Digitaria ciliaris; 269 g/ha
  F: Digitaria ciliaris, herbicidal effect grade: 3 (Herbicidal ratio of 40% or higher and lower than 70%)
corn; 269 g/ha
  c: corn, effect on crop grade: 3 (Herbicidal ratio of 40% or higher and lower than 70%)
Alopecurus myosuroides [3]; [6]
  J: Alopecurus myosuroides, herbicidal effect grade: 4 (Herbicidal ratio of 70% or higher and lower than 90%)
Wheat [4]; 269 g/ha
  e: wheat, effect on crop grade: 0 (Herbicidal ratio of 5% or lower (almost no effect))
